The text below walks through data of patent US11524966B1 (Valo Early Discovery, Inc., priority 2017, dated 2022).

The target in this test is T1, USP28 (USP28-5(1-1077)-TEV-6*His; LifeSensors) (Homo sapiens, UniProt Q96RU2).
T1 construct: construct USP28 (USP28-5(1-1077)-TEV-6*His; LifeSensors); TEV cleavage site (C); 6xHis (C); purchased LifeSensors
T1 sequence (Q96RU2 1-1077): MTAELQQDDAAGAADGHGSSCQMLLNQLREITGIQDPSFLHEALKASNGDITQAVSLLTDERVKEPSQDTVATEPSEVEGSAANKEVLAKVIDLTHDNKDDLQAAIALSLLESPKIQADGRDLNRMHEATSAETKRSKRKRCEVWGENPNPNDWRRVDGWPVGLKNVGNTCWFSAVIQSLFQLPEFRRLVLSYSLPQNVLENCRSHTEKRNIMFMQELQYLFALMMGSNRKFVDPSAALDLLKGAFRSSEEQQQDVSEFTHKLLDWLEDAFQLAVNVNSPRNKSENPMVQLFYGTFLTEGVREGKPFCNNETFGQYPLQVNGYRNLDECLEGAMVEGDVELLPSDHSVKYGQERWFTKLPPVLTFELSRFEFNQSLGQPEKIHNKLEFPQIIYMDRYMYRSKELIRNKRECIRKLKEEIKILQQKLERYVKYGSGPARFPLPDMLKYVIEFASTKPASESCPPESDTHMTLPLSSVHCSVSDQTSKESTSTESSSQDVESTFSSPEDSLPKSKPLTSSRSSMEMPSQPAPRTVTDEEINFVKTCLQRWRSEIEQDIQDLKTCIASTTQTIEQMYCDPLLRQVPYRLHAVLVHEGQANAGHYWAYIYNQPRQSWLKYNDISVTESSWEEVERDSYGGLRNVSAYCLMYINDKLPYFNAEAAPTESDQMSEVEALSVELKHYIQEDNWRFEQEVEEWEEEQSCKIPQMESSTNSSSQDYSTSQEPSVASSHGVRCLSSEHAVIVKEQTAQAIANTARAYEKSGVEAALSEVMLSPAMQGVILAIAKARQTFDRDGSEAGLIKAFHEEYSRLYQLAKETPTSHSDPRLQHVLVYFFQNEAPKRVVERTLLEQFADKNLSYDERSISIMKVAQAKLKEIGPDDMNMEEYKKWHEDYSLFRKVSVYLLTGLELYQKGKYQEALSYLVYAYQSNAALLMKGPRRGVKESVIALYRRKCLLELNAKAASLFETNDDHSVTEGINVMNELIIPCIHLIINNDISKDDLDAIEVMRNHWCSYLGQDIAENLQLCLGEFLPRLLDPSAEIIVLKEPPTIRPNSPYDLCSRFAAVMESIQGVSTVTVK
As to the kind of experiment: Ubiquitin-Rhodamine 110 Assay for USP28 Activity, Example A-1(b). The class given is biochemical. The settings on record: Ubiquitin-Rhodamine 110 assay, Example A-1(b). In a few lines:
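Single-point screening used 10 μM compound with 90 min room-temperature incubation; follow-up dose-responses (25 μM top, 3-fold) used 75 pM USP28 1-1077 construct, 30 min compound preincubation, 25 nM Ub-Rh110, 20 min reaction, citric acid quench. Rh110 fluorescence normalised to no-enzyme and DMSO controls; IC50 from 4-parameter logistic fit.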

On to `Cc1ccc2c(N)c(C(=O)N[C@H]3COc4cc(N5CCNCC5)cc(F)c4C3)oc2n1` [Example 169, 3-amino-N-[(3R)-5-fluoro-7-(piperazin-1-yl)-3,4-dihydro-2H-1-benzopyran-3-yl]-6-methylfuro[2,3-b]pyridine-2-carboxamide], for which the “USP28 A-1(b) IC50 range” value was “+ (>2 μM)”.
